Assay results reported in patent US20120179089A1, “SUBSTITUTED BIPYRIDINES FOR USE IN ORGANIC LIGHT-EMITTING DEVICES” (Nitto Denko Corporation, priority 2010, published 2012).

Legend:
[1] = system: CHO-K1 (Chinese Hamster Ovarian Cancer, ATCC, CRL-2243) cell line; test: Conversion of ALA to protoporphyrin IX (PpIX) in cells, fluorescence emission; format: cell-based; settings: ALA 1 mM and 2 mM, about 16 hrs at 37° C.; fluorescence emission at 635 nm
CHO-K1 cells = test: Optical microscope images of cells after red light irradiation; format: cell-based, Chinese Hamster; settings: ALA treated CHO-K1 cells after 30 J/cm^2 red light (630 nm) irradiation; FIG. 9B
[2] = system: CHO-K1 (Chinese Hamster Ovarian Cancer, ATCC, CRL-2243) cell line; test: Efficacy study: ALA plus red OLED light, MTT cell viability; format: cell-based; settings: ALA about 1 mM or higher, 16 hrs incubation, OLED light (630 nm) dose of 30 J/cm^2, FIG. 10
[3] = Solubility observed on isolation; format: physicochemical
Experimental: 6,6′-di(benzo[d]thiazol-2-yl)-3,3′-bipyridine (17). A mixture of 9 (0.591 g, 2.03 mmol), 16 (0.700 g, 2.07 mmol), tetrakis(triphenylphosphine)palladium(0) (117 mg, 102 μmol), Na2CO3 (1.59 g, 15.0 mmol), H2O (15 mL) and THF (25 mL) was degassed with argon for about 20 min while stirring. The stirring reaction mixture was then maintained under argon at about 80° C. for about 19 h. Upon completion, the mixture was cooled to RT, filtered and the precipitate collected as a white solid (0.83 g, 97%).
2-(6′-(benzo[d]thiazol-2-yl)-3,3′-bipyridin-6-yl)benzo[d]oxazole (18). Following the procedure for 17, 11 (0.558 g, 2.03 mmol), 16 (0.700 g, 2.07 mmol),), tetrakis(triphenylphosphine)palladium(0) (117 mg, 102 μmol), Na2CO3 (1.59 g, 15.0 mmol), H2O (15 mL) and THF (25 mL) yielded an insoluble white solid (0.70 g, 84%) after filtration.

[4] = system: presumed ocular histoplasmosis; parameters: species or system person; settings: in vivo, iv
pathological myopia = test: Phototherapy of pathological myopia with red light emitting OLED; format: in vivo, person; settings: about 6 mg/m^2 intravenously; retina illuminated about 15 minutes after start of infusion
[5] = system: age-related macular degeneration; test: Phototherapy of age-related macular degeneration with red light emitting OLED; format: in vivo, person; settings: about 6 mg/m^2 intravenously; retina illuminated about 15 minutes after start of infusion

NCC(=O)CCC(=O)O [ALA, 5-aminolevulinic acid]
generation of PpIX [1]: confirmed | cell morphology / cell death by optical microscope (CHO-K1 cells): significant cell death | cell death [2]: ≥ 90%

c1ccc2sc(-c3ccc(-c4ccc(-c5nc6ccccc6s5)nc4)cn3)nc2c1 [Compound 17, 6,6′-di(benzo[d]thiazol-2-yl)-3,3′-bipyridine]
solubility [3]: insoluble in numerous common organic solvents

c1ccc2oc(-c3ccc(-c4ccc(-c5nc6ccccc6s5)nc4)cn3)nc2c1 [Compound 18, 2-(6′-(benzo[d]thiazol-2-yl)-3,3′-bipyridin-6-yl)benzo[d]oxazole]
solubility [3]: insoluble

C=Cc1c(C)c2cc3nc(cc4[nH]c(cc5nc(cc1[nH]2)C(C)=C5CCC(=O)O)c(CCC(=O)OC)c4C)[C@@]1(C)C3=CC=C(C(=O)OC)[C@H]1C(=O)OC [Verteporphin]
patient's vision [4]: anticipated to be stabilized | patient's vision (pathological myopia): anticipated to be stabilized | patient's vision [5]: anticipated to be stabilized
